Reference: patent US11992497B2 (priority 2021, dated 2024)

How the values were obtained:
Format in all cases: cell-based
HT29 [1] = assay: GI50 by MTS assay; settings: Homo sapiens, HT-29
Procedure: (§1) For MTS assay, the compounds have been tested at 8 concentrations on 4 colon cancer cell lines for 48 hours. The compounds, concentrations and colon cancer cell line panel tested are the following: • CBG: 0 μM, 1.25 μM, 2.5 μM, 5 μM, 10 μM, 20 μM, 40 μM, and 80 μM. • Compound 1: 0 μM, 1.25 μM, 2.5 μM, 5 μM, 10 μM, 20 μM, 40 μM, and 80 μM. • Compound 2: 0 μM, 1.25 μM, 2.5 μM, 5 μM, 10 μM, 20 μM, 40 μM, and 80 μM. • Colon cancer cell line panel: SW620, HCT15, HT29, HCTl16
(§2) Four colon cancer cell lines of SW620, HCT15, HT29, and HCT116 were included in the colon cancer cell line panel.
(§3) CBG, compound 1 and compound 2 were dissolved in DMSO at a concentration of 10 mM and stored at −20° C.
(§4) Evaluation of DM compounds treatment-induced growth inhibition was performed to determine the GI50 of four colon cancer cell lines with MTS assay or clonogenic assay. Each experiment was repeated in triplicate. In GraphPad Prism, data were log-transformed and fit with a nonlinear curve to calculate the GI50.
(§5) MTS assay. cells were plated at 96 well plates at a density of 1,000 cells per well. After 24 hours, cells were treated with DM compounds at increasing concentrations or DMSO vehicle and incubated for 48 hours. 20 μl of MTS reagent (Promega) was then added and incubated for 2 hours. The absorbance was measured with a microplate reader at 490 nm. Each experiment was repeated in triplicate. In GraphPad Prism, data were log-transformed and fit with a nonlinear curve to calculate the GI50.

HCT116 [2] = assay: GI50 by MTS assay; settings: Homo sapiens, HCT-116
Procedure: as §1, §2, §3, §4, §5

SW620 [3] = assay: GI50 by MTS assay; settings: Homo sapiens, SW-620
Procedure: as §1, §2, §3, §4, §5

HCT15 [4] = assay: GI50 by MTS assay; settings: Homo sapiens, HCT-15
Procedure: as §1, §2, §3, §4, §5

HT29 [5] = assay: GI50 by clonogenic assay; settings: Homo sapiens
Procedure: (§6) For colonogenic assay, the compounds were tested at 4 concentrations for 1 week or 2 weeks on 4 colon cancer cell lines. The compounds, concentrations, colon cancer cell line panel and end time point tested are the following: • CBG: 0 μM, 10 μM, 20 μM, 40 μM, and 80 μM. • Compound 1: 0 μM, 5 μM, 7.5 μM, 10 μM, and 20 μM. • Compound 2: 0 μM, 10 μM, 20 μM, 40 μM, and 80 μM. • Colon cancer cell line panel and end time point: SW620, HCT15, HCT116, 1 week; HT29, 2 weeks
as §2, §3, §4
(§7) Clonogenic assay. cells were plated at 6 well plates at a density of 2,500 cells per well. After 24 hours, cells were treated with DM compounds at increasing concentrations or DMSO vehicle and incubated for 1 week or 2 weeks. Cells were then fixed and stained with 1% crystal violet (Sigma-Aldrich) solution. Quantification was performed using ImageJ. Each experiment was repeated in triplicate. In GraphPad Prism, data were log-transformed and fit with a nonlinear curve to calculate the GI50.

HCT116 [6] = assay: GI50 by clonogenic assay; settings: Homo sapiens
Procedure: as §6, §2, §3, §4, §7

SW620 [7] = assay: GI50 by clonogenic assay; settings: Homo sapiens
Procedure: as §6, §2, §3, §4, §7

HCT15 [8] = assay: GI50 by clonogenic assay; settings: Homo sapiens
Procedure: as §6, §2, §3, §4, §7

[9] = HT29 cells, 48 hours, read-out: GI50 (MTS assay)
[10] = MTS assay, HT29, 48 hours, average of N1-N3, read-out: GI50 AVG
[11] = MTS assay, HT29, 48 hours, replicate N1, read-out: GI50 N1
[12] = MTS assay, HT29, 48 hours, replicate N2, read-out: GI50 N2
[13] = MTS assay, HT29, 48 hours, replicate N3, read-out: GI50 N3
[14] = HCTl116 cells, 48 hours, read-out: GI50 (MTS assay)
[15] = MTS assay, HCT116, 48 hours, replicate N1, read-out: GI50 N1
[16] = MTS assay, HCT116, 48 hours, replicate N2, read-out: GI50 N2
[17] = MTS assay, HCT116, 48 hours, replicate N3, read-out: GI50 N3
[18] = MTS assay, SW620, 48 hours, average of N1-N3, read-out: GI50 AVG
[19] = MTS assay, SW620, 48 hours, replicate N1, read-out: GI50 N1
[20] = MTS assay, SW620, 48 hours, replicate N2, read-out: GI50 N2
[21] = MTS assay, SW620, 48 hours, replicate N3, read-out: GI50 N3
[22] = SW620 cells, 48 hours, read-out: GI50 (MTS assay)
[23] = HCT15 cells, 48 hours, read-out: GI50 (MTS assay)
[24] = MTS assay, HCT15, 48 hours, average of N1-N3, read-out: GI50 AVG
[25] = MTS assay, HCT15, 48 hours, replicate N1, read-out: GI50 N1
[26] = MTS assay, HCT15, 48 hours, replicate N2, read-out: GI50 N2
[27] = MTS assay, HCT15, 48 hours, replicate N3, read-out: GI50 N3
[28] = HT-29, 336 h, HT29 cells, 2 weeks, read-out: GI50 (clonogenic assay)
[29] = HT-29, clonogenic assay, HT29, average of N1-N3, read-out: GI50 AVG
[30] = HT-29, clonogenic assay, HT29, replicate N1, read-out: GI50 N1
[31] = HT-29, clonogenic assay, HT29, replicate N2, read-out: GI50 N2
[32] = HT-29, clonogenic assay, HT29, replicate N3, read-out: GI50 N3
[33] = HCT-116, 168 h, HCT116 cells, 1 week, read-out: GI50 (clonogenic assay)
[34] = HCT-116, clonogenic assay, HCT116, average of N1-N3, read-out: GI50 AVG
[35] = HCT-116, clonogenic assay, HCT116, replicate N1, read-out: GI50 N1
[36] = HCT-116, clonogenic assay, HCT116, replicate N2, read-out: GI50 N2
[37] = HCT-116, clonogenic assay, HCT116, replicate N3, read-out: GI50 N3
[38] = SW-620, 168 h, SW620 cells, 1 week, read-out: GI50 (clonogenic assay)
[39] = SW-620, clonogenic assay, SW620, average of N1-N3, read-out: GI50 AVG
[40] = SW-620, clonogenic assay, SW620, replicate N1, read-out: GI50 N1
[41] = SW-620, clonogenic assay, SW620, replicate N2, read-out: GI50 N2
[42] = SW-620, clonogenic assay, SW620, replicate N3, read-out: GI50 N3
[43] = HCT-15, 168 h, HCT15 cells, 1 week, read-out: GI50 (clonogenic assay)
[44] = HCT-15, clonogenic assay, HCT15, average of N1-N3, read-out: GI50 AVG
[45] = HCT-15, clonogenic assay, HCT15, replicate N1, read-out: GI50 N1
[46] = HCT-15, clonogenic assay, HCT15, replicate N2, read-out: GI50 N2
[47] = HCT-15, clonogenic assay, HCT15, replicate N3, read-out: GI50 N3

SMILES	GI50 (HT29 [1]; [9])	GI50 (HT29 [1]; [11])	GI50 (HT29 [1]; [12])	GI50 (HT29 [1]; [13])	GI50 (HCT116 [2]; [14])	GI50 (SW620 [3]; [19])	GI50 (SW620 [3]; [20])	GI50 (SW620 [3]; [21])	GI50 (SW620 [3]; [22])	GI50 (HCT15 [4]; [23])	GI50 (HCT15 [4]; [24])	GI50 (HCT15 [4]; [25])	GI50 (HCT15 [4]; [26])	GI50 (HCT15 [4]; [27])	GI50 (HT29 [5]; [28])	GI50 (HT29 [5]; [29])	GI50 (HT29 [5]; [30])	GI50 (HT29 [5]; [31])	GI50 (HT29 [5]; [32])	GI50 (HCT116 [6]; [33])	also measured
CCCCCc1cc(O)c(C/C=C(\C)CCC=C(C)C)c(O)c1 [CBG, cannabigerol]	43.6 ± 4.02 µM	42.6 µM	48 µM	40.1 µM	41.4 ± 1.87 µM	39.5 µM	39.4 µM	38 µM	40 ± 0.84 µM	43.6 ± 5.74 µM	43.6 µM	50.2 µM	30.2 µM	40.7 µM	9.09 ± 1.71 µM	9.09 µM	8.11 µM	8.09 µM	11.1 µM	17.4 ± 4.91 µM	GI50 (HT29 [1]; [10]): 43.6 µM; GI50 (HCT116 [2]; MTS assay, HCT116, 48 hours, average of N1-N3, read-out: GI50 AVG): 41.4 µM; GI50 (HCT116 [2]; [15]): 40 µM; GI50 (HCT116 [2]; [16]): 44.1 µM; GI50 (HCT116 [2]; [17]): 40.2 µM; GI50 (SW620 [3]; [18]): 39 µM; GI50 (HCT116 [6]; [34]): 17.4 µM; GI50 (HCT116 [6]; [35]): 21.1 µM; GI50 (HCT116 [6]; [36]): 20.7 µM; GI50 (HCT116 [6]; [37]): 10.5 µM; GI50 (SW620 [7]; [38]): 20.6 ± 1.95 µM; GI50 (SW620 [7]; [39]): 20.6 µM; GI50 (SW620 [7]; [40]): 18.9 µM; GI50 (SW620 [7]; [41]): 22.7 µM; GI50 (SW620 [7]; [42]): 20.1 µM; GI50 (HCT15 [8]; [43]): 17.4 ± 2.89 µM; GI50 (HCT15 [8]; [44]): 17.4 µM; GI50 (HCT15 [8]; [45]): 15.6 µM; GI50 (HCT15 [8]; [46]): 20.7 µM; GI50 (HCT15 [8]; [47]): 15.9 µM
CCCCCc1cc(O)c(C/C=C(\C)CCC=C(C)C)c(OC)c1 [Compound 1, (E)-2-(3,7-dimethylocta-2,6-dien-1-yl)-3-methoxy-5-pentylphenol]	10.2 ± 0.4 µM	9.84 µM	10.1 µM	10.6 µM	10.3 ± 0.24 µM	8.47 µM	7.55 µM	10.3 µM	8.76 ± 1.38 µM	10 ± 0.52 µM	10 µM	10.1 µM	9.46 µM	10.5 µM	2.95 ± 1.41 µM	2.95 µM	1.33 µM	3.87 µM	3.66 µM	5.51 ± 1.51 µM	GI50 (HT29 [1]; [10]): 10.2 µM; GI50 (SW620 [3]; [18]): 8.76 µM; GI50 (HCT116 [6]; [34]): 5.51 µM; GI50 (HCT116 [6]; [35]): 4.79 µM; GI50 (HCT116 [6]; [36]): 7.61 µM; GI50 (HCT116 [6]; [37]): 4.12 µM; GI50 (SW620 [7]; [38]): 5.35 ± 1.11 µM; GI50 (SW620 [7]; [39]): 5.35 µM; GI50 (SW620 [7]; [40]): 5.76 µM; GI50 (SW620 [7]; [41]): 4.09 µM; GI50 (SW620 [7]; [42]): 6.2 µM; GI50 (HCT15 [8]; [43]): 5.03 ± 2.16 µM; GI50 (HCT15 [8]; [44]): 5.03 µM; GI50 (HCT15 [8]; [45]): 3.64 µM; GI50 (HCT15 [8]; [46]): 7.52 µM; GI50 (HCT15 [8]; [47]): 3.94 µM
CCCCCc1cc(OC)c(C/C=C(\C)CCC=C(C)C)c(OC)c1 [Compound 2, (E)-2-(3,7-dimethylocta-2,6-dien-1-yl)-1,3-dimethoxy-5-pentylbenzene]	> 80 µM	> 80 µM	> 80 µM	> 80 µM	> 80 µM	> 80 µM	> 80 µM	> 80 µM	> 80 µM	> 80 µM	35.9 µM	> 80 µM	> 80 µM	> 80 µM	34.5 ± 14.4 µM	34.5 µM	51.1 µM	25 µM	27.3 µM	43.1 ± 7.68 µM	GI50 (HCT116 [2]; [15]): > 80 µM; GI50 (HCT116 [2]; [16]): > 80 µM; GI50 (HCT116 [2]; [17]): > 80 µM; GI50 (HCT116 [6]; [34]): 43.1 µM; GI50 (HCT116 [6]; [35]): 53.4 µM; GI50 (HCT116 [6]; [36]): 40.6 µM; GI50 (HCT116 [6]; [37]): 35.1 µM; GI50 (SW620 [7]; [38]): 41.7 ± 5.9 µM; GI50 (SW620 [7]; [39]): 41.7 µM; GI50 (SW620 [7]; [40]): 47.8 µM; GI50 (SW620 [7]; [41]): 41.2 µM; GI50 (SW620 [7]; [42]): 36 µM; GI50 (HCT15 [8]; [43]): 35.9 ± 8.95 µM; GI50 (HCT15 [8]; [44]): 35.9 µM; GI50 (HCT15 [8]; [45]): 46.2 µM; GI50 (HCT15 [8]; [46]): 30.5 µM; GI50 (HCT15 [8]; [47]): 31 µM
